Laboratory results reported in the supplement of paper PMC10307832.

Legend:
Assay in all cases: relative viability (nuclei count vs DMSO), 5 days (fraction); higher = more cells survive
QS11 + Decitabine = compound: C1CC2=C(C1)C=C(C=C2)OC3=NC(=C4C(=N3)N(C=N4)CC5=CC=C(C=C5)C6=CC=CC=C6)N[C@@H](CC7=CC=CC=C7)CO [QS11] + Nc1ncn([C@H]2C[C@H](O)[C@@H](CO)O2)c(=O)n1 [Decitabine] (partner 2 µM)
How it was run: (§1)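 Cells from lung cancer lines were seeded into 1536-well plates and, one day later, dosed by pin tool. Treatments were either a single drug or a fixed dose of an anchor drug with five library-drug doses (not always all listed) in √10 steps. After 5 days, nuclei were stained in a one-step fixation (final 0.05% Triton X-100, 1% formaldehyde, 1 ug/ml Hoechst) and counted on 4× images, and relative viability is the treated-to-vehicle nuclei ratio, as the median of duplicate plates.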

AZ628 + Pictilisib = compound: CC1=C(C=C(C=C1)NC(=O)C2=CC(=CC=C2)C(C)(C)C#N)NC3=CC4=C(C=C3)N=CN(C4=O)C [AZ628] + CS(=O)(=O)N1CCN(Cc2cc3nc(-c4cccc5[nH]ncc45)nc(N4CCOCC4)c3s2)CC1 [Pictilisib] (partner 1 µM)
How it was run: as §1

[1] = compound: C[As](C)SC[C@H](NC(=O)CC[C@H](N)C(=O)O)C(=O)NCC(=O)O [Darinaparsin] + CS(=O)(=O)N1CCN(Cc2cc3nc(-c4cccc5[nH]ncc45)nc(N4CCOCC4)c3s2)CC1 [Pictilisib] (partner 1 µM)
How it was run: as §1

QS11 + Pictilisib = compound: C1CC2=C(C1)C=C(C=C2)OC3=NC(=C4C(=N3)N(C=N4)CC5=CC=C(C=C5)C6=CC=CC=C6)N[C@@H](CC7=CC=CC=C7)CO [QS11] + CS(=O)(=O)N1CCN(Cc2cc3nc(-c4cccc5[nH]ncc45)nc(N4CCOCC4)c3s2)CC1 [Pictilisib] (partner 1 µM)
How it was run: as §1

| Cell Line | relative viability (QS11 + Decitabine; first compound 0.08 µM) | relative viability (QS11 + Decitabine; first compound 0.253 µM) | relative viability (QS11 + Decitabine; first compound 0.8 µM) | relative viability (QS11 + Decitabine; first compound 2.53 µM) | relative viability (QS11 + Decitabine; first compound 8 µM) | relative viability (AZ628 + Pictilisib; first compound 0.08 µM) | relative viability (AZ628 + Pictilisib; first compound 0.253 µM) | relative viability (AZ628 + Pictilisib; first compound 0.8 µM) | relative viability (AZ628 + Pictilisib; first compound 2.53 µM) | relative viability (AZ628 + Pictilisib; first compound 8 µM) | relative viability ([1]; first compound 0.08 µM) | relative viability ([1]; first compound 0.8 µM) | relative viability ([1]; first compound 2.53 µM) | relative viability ([1]; first compound 8 µM) | relative viability (QS11 + Pictilisib; first compound 0.08 µM) | relative viability (QS11 + Pictilisib; first compound 0.253 µM) | relative viability (QS11 + Pictilisib; first compound 0.8 µM) | relative viability (QS11 + Pictilisib; first compound 2.53 µM) | relative viability (QS11 + Pictilisib; first compound 8 µM) |
| --- | --- | --- | --- | --- | --- | --- | --- | --- | --- | --- | --- | --- | --- | --- | --- | --- | --- | --- | --- |
| NCI-H1993 | 0.614 | 0.621 | 0.655 | 0.543 | 0.573 | 0.784 | 0.829 | 0.705 | 0.769 | 0.726 | 0.885 | 0.783 | 0.695 | 0.848 | 0.843 | 0.935 | 0.799 | 0.875 | 0.635 |
| NCI-H23 | 0.282 | 0.305 | 0.311 | 0.292 | 0.317 | 0.407 | 0.319 | 0.261 | 0.312 | 0.246 | 0.431 | 0.494 | 0.444 | 0.603 | 0.394 | 0.413 | 0.405 | 0.433 | 0.361 |
| NCI-H1355 | 0.34 | 0.31 | 0.333 | 0.349 | 0.346 | 0.454 | 0.395 | 0.404 | 0.34 | 0.285 | 0.445 | 0.37 | 0.451 | 0.456 | 0.399 | 0.299 | 0.378 | 0.475 | 0.443 |
| NCI-H2170 | 0.487 | 0.466 | 0.398 | 0.43 | 0.5 | 0.386 | 0.305 | 0.354 | 0.337 | 0.275 | 0.305 | 0.279 | 0.316 | 0.297 | 0.326 | 0.356 | 0.327 | 0.276 | 0.263 |
| NCI-H2405 | 0.793 | 0.714 | 0.706 | 0.906 | 0.843 | 0.222 | 0.249 | 0.256 | 0.255 | 0.257 | 0.5 | 0.443 | 0.422 | 0.537 | 0.393 | 0.412 | 0.468 | 0.756 | 0.567 |
| NCI-H2023 | 0.231 | 0.227 | 0.217 | 0.249 | 0.224 | 0.218 | 0.23 | 0.236 | 0.196 | 0.202 | 0.284 | 0.193 | 0.217 | 0.262 | 0.255 | 0.224 | 0.291 | 0.309 | 0.283 |
| PC-3 [JPC-3] | – | 0.76 | 0.836 | 0.871 | 0.806 | 0.767 | 0.835 | 0.861 | 0.814 | 0.525 | 0.747 | 0.674 | 0.63 | 0.877 | 0.699 | 0.652 | 0.707 | 0.648 | 0.601 |
| LXF-289 | 0.347 | 0.361 | 0.346 | 0.443 | 0.396 | 0.779 | 0.712 | 0.754 | 0.654 | 0.401 | 0.806 | 0.749 | 0.597 | 0.981 | 0.761 | 0.796 | 0.673 | 0.704 | 0.754 |
| NCI-H1437 | 0.557 | 0.649 | 0.432 | 0.585 | 0.531 | 0.505 | 0.476 | 0.526 | 0.532 | 0.483 | 0.468 | 0.409 | 0.395 | 0.391 | 0.421 | 0.468 | 0.38 | 0.41 | 0.399 |
| NCI-H838 | 0.494 | 0.483 | 0.43 | 0.422 | 0.411 | 0.523 | 0.559 | 0.356 | 0.403 | 0.365 | 0.481 | 0.407 | 0.39 | 0.472 | 0.399 | 0.388 | 0.394 | 0.382 | 0.476 |
| NCI-H650 | 0.283 | 0.365 | 0.347 | 0.298 | 0.322 | 1.07 | 1 | 1.06 | 1.12 | 0.732 | 0.856 | 0.834 | 0.922 | 1.13 | 0.861 | 0.939 | 0.902 | 0.876 | 0.958 |
| LK-2 | 0.246 | 0.332 | 0.37 | 0.288 | 0.23 | 0.577 | 0.824 | 0.443 | 0.481 | 0.311 | 0.634 | – | 0.547 | 0.564 | 0.605 | 0.698 | 0.537 | 0.547 | 0.602 |
| NCI-H520 | 0.567 | 0.513 | 0.531 | 0.537 | 0.531 | 0.312 | 0.313 | 0.273 | 0.212 | 0.204 | 0.287 | 0.339 | 0.241 | 0.277 | – | 0.343 | 0.27 | 0.321 | 0.275 |
| H3255 | 0.578 | 0.64 | – | 0.556 | 0.674 | 0.457 | 0.499 | 0.463 | 0.398 | 0.225 | 0.474 | 0.429 | 0.421 | 0.514 | 0.37 | 0.523 | – | 0.541 | 0.537 |
| PC-14 | 0.244 | 0.196 | 0.199 | 0.22 | 0.195 | 0.617 | 0.627 | 0.738 | 0.808 | 0.237 | 1.15 | 0.823 | 0.566 | 0.752 | 0.658 | 0.639 | 0.667 | 0.569 | 0.604 |
| HCC-78 | 0.687 | 0.772 | 0.662 | 0.797 | 0.719 | 0.373 | 0.21 | 0.211 | 0.228 | 0.231 | 0.191 | 0.228 | 0.246 | 0.267 | 0.206 | 0.185 | 0.206 | 0.222 | 0.29 |
| NCI-H3122 | 0.484 | 0.554 | – | 0.487 | 0.556 | 0.286 | 0.218 | 0.214 | 0.214 | 0.234 | 0.711 | 0.583 | 0.636 | 0.707 | 0.566 | 0.693 | 0.467 | 0.71 | 0.722 |
